In assay [1] the target is T1, S1P1 (Homo sapiens, UniProt P21453). Kind of assay: Tango β-arrestin Recruitment Assay in HEK293 cells (Assay 2a). Format: cell-based. Set-up: linker with TEV protease (N1a) cleavage site (C); host or cells: HEK293, transiently transfected. The settings on record: Tango β-arrestin Recruitment Assay, read-out: Assay 2a EC50. From the text:
For the Tango™ β-arrestin recruitment assay, the cytoplasmic C-terminus of S1P1 is tethered to the tTA transcriptional activator with a linker that contains a cleavage site for the N1a protease from tobacco etch virus (TEV protease). The C-terminus of the human β-arrestin2 protein is fused to TEV protease. Binding of an agonist recruits the β-arrestin-TEV fusion protein to the receptor resulting in cleavage of the linker and release of tTA to enter the nucleus and subsequently activate a tTA-dependent luciferase reporter gene.
Frozen HEK293 cells transiently transfected with receptor cDNAs for S1P1 (Invitrogen) were thawed and suspended in 10 mL of Pro293a-CDM culture medium (Invitrogen) supplemented with 4 mM L-Glutamine (Invitrogen), 1× Pen/Strep (100 units/mL penicillin and 100 μg/mL streptomycin, Invitrogen) and 0.1% fatty acid free BSA (Sigma-Aldrich). Cells were added to the wells of a 384-well white opaque bottom assay plate (PerkinElmer) at 3,000-6,000 cells per well and the plate was incubated for approximately 4 h in a 37° C. incubator. Test compounds were tested at maximum concentrations of 10 μM for the agonist assays. Compounds were diluted in DMSO (10 concentration points, 3-fold each) and added to the assay plate at a 1% final DMSO concentration. For each compound, there were duplicate assay plates and each assay plate had duplicate wells per concentration point. The plate was incubated at 37° C. for 30 min. The efficacy control was 5 μM S1P (Avanti). Following agonist addition, the assay plates were incubated in a 37° C. incubator for 16-18 h. Luciferase assay reagent was added and luminescence measured in an EnVision plate reader (PerkinElmer). To determine agonist activity, percent activity was calculated as [(test compound−background)/(positive control−background)* 100], where background is the luminescence of the DMSO alone control and the positive control is the luminescence from cells incubated with the efficacy control 5 μM S1P. The percent activities were plotted against compound concentration to determine EC50 using XLFit (IDBS).
Assay 1 is the CNG cAMP Assay as described in Biological Example 1. Assay 2a and 2b are the Tango™ β-arrestin Recruitment Assay in HEK293 and U2OS cells, respectively, as described in Biological Example 2. Assay 3a is the hS1P1R GTPγS Binding Assay as described in Biological Example 3. Assay 3b is the GTP-Eu Binding Assay as described in Biological Example 3. EC50's were measured unless otherwise noted. […] In the table, “nt” means the Compound was not tested and “no” means the compound was tested but had no measurable activity under the assay conditions employed.
Target sequence in this assay (P21453 whole entry, the tested form may be a part): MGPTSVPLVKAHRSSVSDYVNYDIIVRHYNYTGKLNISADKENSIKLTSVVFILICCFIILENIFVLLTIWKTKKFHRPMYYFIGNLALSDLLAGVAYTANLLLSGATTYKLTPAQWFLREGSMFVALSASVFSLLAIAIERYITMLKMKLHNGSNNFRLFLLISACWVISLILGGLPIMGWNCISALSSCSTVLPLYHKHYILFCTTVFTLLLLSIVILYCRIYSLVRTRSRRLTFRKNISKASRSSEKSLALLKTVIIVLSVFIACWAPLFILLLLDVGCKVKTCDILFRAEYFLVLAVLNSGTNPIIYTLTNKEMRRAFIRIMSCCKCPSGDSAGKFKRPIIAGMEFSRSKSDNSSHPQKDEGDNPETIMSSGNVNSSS
Target sequence in this assay (P32121 whole entry partner, the tested form may be a part): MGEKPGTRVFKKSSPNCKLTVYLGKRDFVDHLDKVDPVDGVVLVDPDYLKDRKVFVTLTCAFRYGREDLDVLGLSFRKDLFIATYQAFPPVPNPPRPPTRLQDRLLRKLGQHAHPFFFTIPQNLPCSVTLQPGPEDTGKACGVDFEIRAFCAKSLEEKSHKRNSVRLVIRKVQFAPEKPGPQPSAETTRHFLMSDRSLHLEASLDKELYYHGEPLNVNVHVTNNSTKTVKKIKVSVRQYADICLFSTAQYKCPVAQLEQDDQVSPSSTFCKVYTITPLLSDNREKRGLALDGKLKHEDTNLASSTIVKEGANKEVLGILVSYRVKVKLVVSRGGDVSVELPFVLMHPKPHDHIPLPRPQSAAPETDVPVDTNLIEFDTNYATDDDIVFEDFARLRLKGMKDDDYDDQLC

Assay [2] deals with T1, S1P1. The assay can be described thus: CNG cAMP Assay (Assay 1). Type of assay: cell-based. More on the design: host or cells: HEK293 cells expressing the CNG channel. The settings on record: read-out: Assay 1 EC50. In short, it runs like this:
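cAMP-gated CNG membrane-potential read-out (350/590 nm, T90/T0 ratio) in S1P1/CNG HEK293 cells after 90 min with compound plus NECA 500 nM, S1P 10 nM (EC95), Ro 20-1724 25 μM. Ten 3-fold points from 10 μM, 1.8% DMSO; percent activity vs NECA-only control gives EC50.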
Target sequence in this assay (P21453 whole entry, the tested form may be a part): as the sequence (P21453 whole entry, the tested form may be a part) above

As for `FC(F)(F)c1cc(Br)c2nc(-c3nc(-c4ccccc4Cl)no3)cn2c1` [Example 159, 8-bromo-2-[3-(2-chlorophenyl)-1,2,4-oxadiazol-5-yl]-6-(trifluoromethyl)imidazo[1,2-a]pyridine], the EC50 on S1P1 [1] is 100 to 500 nM; at S1P1 [2], at most 100 nM.
Regarding `Cc1cc(C#N)c2nc(-c3nc(-c4cc(F)c(CCC(=O)O)cc4Cl)no3)cn2c1` [Example 160, 3-{5-chloro-4-[5-(8-cyano-6-methylimidazo[1,2-a]pyridin-2-yl)-1,2,4-oxadiazol-3-yl]-2-fluorophenyl}propanoic acid], the figures for the EC50 at S1P1 [1] and at S1P1 [2] were 100 to 500 nM and at most 100 nM, respectively.
For `CC(Cc1ccc(-c2noc(-c3cn4cc(C(F)(F)F)cc(Cl)c4n3)n2)c(Cl)c1)C(=O)O` (centres unmarked) [Example 171, 3-(3-chloro-4-{5-[8-chloro-6-(trifluoromethyl)imidazo[1,2-a]pyridin-2-yl]-1,2,4-oxadiazol-3-yl}phenyl)-2-methylpropanoic acid], in that order: 100 to 500 nM and at most 100 nM.
The corresponding values for `Cc1cc(CC(C)C(=O)O)ccc1-c1noc(-c2cn3cc(C(F)(F)F)cc(Br)c3n2)n1` (centres unmarked) [Example 173, 3-(4-{5-[8-bromo-6-(trifluoromethyl)imidazo[1,2-a]pyridin-2-yl]-1,2,4-oxadiazol-3-yl}-3-methylphenyl)-2-methylpropanoic acid] are 100 to 500 nM and at most 100 nM.
The corresponding values for `Cc1cc(CC(C)C(=O)O)ccc1-c1noc(-c2cn3cc(C(F)(F)F)cc(Cl)c3n2)n1` (centres unmarked) [Example 180, 3-(4-{5-[8-chloro-6-(trifluoromethyl)imidazo[1,2-a]pyridin-2-yl]-1,2,4-oxadiazol-3-yl}-3-methylphenyl)-2-methylpropanoic acid] are 100 to 500 nM and at most 100 nM.
Take `Cc1cc(C(C)CC(=O)O)ccc1-c1noc(-c2cn3cc(C(F)(F)F)cc(Cl)c3n2)n1` (centres unmarked) [Example 181, 3-(4-{5-[8-chloro-6-(trifluoromethyl)imidazo[1,2-a]pyridin-2-yl]-1,2,4-oxadiazol-3-yl}-3-methylphenyl)butanoic acid]: the concentration giving a half-maximal response (EC50) on S1P1 [1] was 100 to 500 nM; at S1P1 [2], at most 100 nM.
For `Oc1cc(Cl)c(-c2noc(-c3cn4cc(C(F)(F)F)cc(Cl)c4n3)n2)cc1Cl` [Example 191, 2,5-dichloro-4-{5-[8-chloro-6-(trifluoromethyl)imidazo[1,2-a]pyridin-2-yl]-1,2,4-oxadiazol-3-yl}phenol], in that order: at most 100 nM and at most 100 nM.
For `CC(Cc1cc(Cl)c(-c2noc(-c3cn4cc(C(F)(F)F)cc(Cl)c4n3)n2)cc1F)C(=O)O` (centres unmarked) [Example 203, 3-(5-chloro-4-{5-[8-chloro-6-(trifluoromethyl)imidazo[1,2-a]pyridin-2-yl]-1,2,4-oxadiazol-3-yl}-2-fluorophenyl)-2-methylpropanoic acid], in that order: 100 to 500 nM and at most 100 nM.
The corresponding values for `NCC(O)COc1cc(Cl)c(-c2noc(-c3cn4cc(C(F)(F)F)cc(Cl)c4n3)n2)cc1F` (centres unmarked) [Example 216, 1-amino-3-[(5-chloro-4-{5-[8-chloro-6-(trifluoromethyl)imidazo[1,2-a]pyridin-2-yl]-1,2,4-oxadiazol-3-yl}-2-fluorophenyl)oxy]propan-2-ol] are at most 100 nM and at most 100 nM.
As for `O=C(O)CCc1ccc(-c2nc(-c3cn4cc(C(F)(F)F)cc(Cl)c4n3)no2)cc1Cl` [Example 235, 3-(2-chloro-4-{3-[8-chloro-6-(trifluoromethyl)imidazo[1,2-a]pyridin-2-yl]-1,2,4-oxadiazol-5-yl}phenyl)propanoic acid], the EC50 is 100 to 500 nM at S1P1 [1] and at most 100 nM on S1P1 [2].
Consider `OCCOc1ccc(-c2nnc(-c3cn4cc(C(F)(F)F)cc(Cl)c4n3)s2)c(Cl)c1` [Example 243, 2-[(3-chloro-4-{5-[8-chloro-6-(trifluoromethyl)imidazo[1,2-a]pyridin-2-yl]-1,3,4-thiadiazol-2-yl}phenyl)oxy]ethanol], for which the EC50 on S1P1 [1] is 100 to 500 nM; on S1P1 [2], at most 100 nM.
Turning to `O=C(O)CCOc1ccc(-c2noc(-c3cn4cc(C(F)(F)F)cc(Cl)c4n3)n2)c(Cl)c1` [Example 255, 3-[(3-chloro-4-{5-[8-chloro-6-(trifluoromethyl)imidazo[1,2-a]pyridin-2-yl]-1,2,4-oxadiazol-3-yl}phenyl)oxy]propanoic acid], the values for the EC50 at S1P1 [1] and at S1P1 [2] were 100 to 500 nM and at most 100 nM, respectively.
For `CC(CC(=O)O)c1ccc(-c2noc(-c3cn4cc(C(F)(F)F)cc(Br)c4n3)n2)c(Cl)c1` (centres unmarked) [Example 266, 3-(4-{5-[8-bromo-6-(trifluoromethyl)imidazo[1,2-a]pyridin-2-yl]-1,2,4-oxadiazol-3-yl}-3-chlorophenyl)butanoic acid], in that order: 100 to 500 nM and at most 100 nM.
The corresponding values for `N#CC(CC(=O)O)c1ccc(-c2noc(-c3cn4cc(C(F)(F)F)cc(Cl)c4n3)n2)c(Cl)c1` (centres unmarked) [Example 267, 3-(3-chloro-4-{5-[8-chloro-6-(trifluoromethyl)imidazo[1,2-a]pyridin-2-yl]-1,2,4-oxadiazol-3-yl}phenyl)-3-cyanopropanoic acid] are 100 to 500 nM and at most 100 nM.
The corresponding values for `OCCC(O)c1ccc(-c2noc(-c3cn4cc(C(F)(F)F)cc(Cl)c4n3)n2)c(Cl)c1` (centres unmarked) [Example 272, 1-(3-chloro-4-{5-[8-chloro-6-(trifluoromethyl)imidazo[1,2-a]pyridin-2-yl]-1,2,4-oxadiazol-3-yl}phenyl)propane-1,3-diol] are 100 to 500 nM and at most 100 nM.
Turning to `Fc1ccc(-c2noc(-c3cn4cc(C(F)(F)F)cc(Cl)c4n3)n2)c(Cl)c1` [Example 274, 8-chloro-2-[3-(2-chloro-4-fluorophenyl)-1,2,4-oxadiazol-5-yl]-6-(trifluoromethyl)imidazo[1,2-a]pyridine], the 50% effective concentration (EC50) on S1P1 [1] was in the range of 500 to 1000 nM; at S1P1 [2], 100 to 500 nM.
For `CS(=O)(=O)Cc1ccc(-c2noc(-c3cn4cc(C(F)(F)F)cc(Cl)c4n3)n2)c(Cl)c1` [Example 275, 8-chloro-2-(3-{2-chloro-4-[(methylsulfonyl)methyl]phenyl}-1,2,4-oxadiazol-5-yl)-6-(trifluoromethyl)imidazo[1,2-a]pyridine], the EC50 was 100 to 500 nM on S1P1 [1] and at most 100 nM on S1P1 [2].
As to `O=C(O)CCc1cc(Cl)c(-c2nnc(-c3cn4cc(C(F)(F)F)cc(Cl)c4n3)o2)cc1F` [Example 282, 3-(5-chloro-4-{5-[8-chloro-6-(trifluoromethyl)imidazo[1,2-a]pyridin-2-yl]-1,3,4-oxadiazol-2-yl}-2-fluorophenyl)propanoic acid], the EC50 on S1P1 [1] and on S1P1 [2] was at most 100 nM in each case.
In the case of `O=C(O)CCc1c(Cl)cc(-c2nc(-c3cn4cc(C(F)(F)F)cc(Cl)c4n3)no2)cc1Cl` [Example 314, 3-(2,6-dichloro-4-{3-[8-chloro-6-(trifluoromethyl)imidazo[1,2-a]pyridin-2-yl]-1,2,4-oxadiazol-5-yl}phenyl)propanoic acid], the EC50 on S1P1 [1] and at S1P1 [2] was at most 100 nM throughout.

These data come from US20100160369A1, “S1P1 Agonists and Methods of Making And Using” (EXELIXIS, INC., priority 2008, published 2010).
